In patent US10016406B2, “Indazole inhibitors of the WNT signal pathway and therapeutic uses thereof” (Samumed, LLC, priority 2009, dated 2018):

The molecules below were run on Wnt (assay: Wnt reporter screening assay: SW480 cells stably transduced with SP5 promoter-firefly luciferase lentiviral construct). Conditions: Homo sapiens, SW480 colon cancer cells, 24 h after compound addition, normalized to DMSO, read-out: Wnt inhibition, IC50.
Assay type: cell-based
Excerpt: Another screening assay for Wnt activity is described as follows. Reporter cell lines can be generated by stably transducing cells of cancer cell lines (e.g., colon cancer) with a lentiviral construct that include a wnt-responsive promoter driving expression of the firefly luciferase gene.
Lentiviral constructs can be made in which the SP5 promoter, a promoter having eight TCF/LEF binding sites derived from the SP5 promoter, is linked upstream of the firefly luciferase gene. The lentiviral constructs can also include a hygromycin resistance gene as a selectable marker. The SP5 promoter construct can be used to transduce SW480 cells, a colon cancer cell line having a mutated APC gene that generates a truncated APC protein, leading to de-regulated accumulation of β-catenin.
Cultured SW480 cells bearing a reporter construct can be distributed at approximately 10,000 cells per well into 384 well multiwell plates. Compounds from a small molecule compound library can then be added to the wells in half-log dilutions using a three micromolar top concentration. A series of control wells for each cell type receive only buffer and compound solvent. Twenty-four hours after the addition of compound, reporter activity for luciferases can be assayed, for example, by addition of the BrightGlo luminescence reagent (Promega) and the Victor3 plate reader (Perkin Elmer). Readings can be normalized to DMSO only treated cells, and normalized activities can then be used in the IC50 calculations.

Row | Structure (SMILES) | IC50
1 | O=C(NC1CCNCC1)c1cncc(-c2ccc3[nH]nc(-c4nc5ccncc5[nH]4)c3c2)c1 [Compound 1, 5-(3-(3H-imidazo[4,5-c]pyridin-2-yl)-1H-indazol-5-yl)-N-(piperidin-4-yl)nicotinamide] | > 10000 nM
2 | O=C(NCC1CCCCC1)c1cncc(-c2ccc3[nH]nc(-c4nc5ccncc5[nH]4)c3c2)c1 [Compound 2, 5-(3-(3H-imidazo[4,5-c]pyridin-2-yl)-1H-indazol-5-yl)-N-(cyclohexylmethyl)nicotinamide] | > 10000 nM
3 | O=C(NCC1CC1)c1cncc(-c2ccc3[nH]nc(-c4nc5c(-c6cccnc6)cncc5[nH]4)c3c2)c1 [Compound 3, N-(cyclopropylmethyl)-5-(3-(7-(pyridin-3-yl)-3H-imidazo[4,5-c]pyridin-2-yl)-1H-indazol-5-yl)nicotinamide] | > 10000 nM
4 | CCC(=O)Nc1cncc(-c2ccc3[nH]nc(-c4nc5c(-c6cccnc6)cncc5[nH]4)c3c2)c1 [Compound 4, N-(5-(3-(7-(pyridin-3-yl)-3H-imidazo[4,5-c]pyridin-2-yl)-1H-indazol-5-yl)pyridin-3-yl)propionamide] | 29 to 50 nM
5 | CC(C)C(=O)Nc1cncc(-c2ccc3[nH]nc(-c4nc5c(-c6cccnc6)cncc5[nH]4)c3c2)c1 [Compound 11, N-(5-(3-(7-(pyridin-3-yl)-3H-imidazo[4,5-c]pyridin-2-yl)-1H-indazol-5-yl)pyridin-3-yl)isobutyramide] | 4 nM
6 | O=C(Nc1cncc(-c2ccc3[nH]nc(-c4nc5c(-c6cccnc6)cncc5[nH]4)c3c2)c1)C1CC1 [Compound 12, N-(5-(3-(7-(pyridin-3-yl)-3H-imidazo[4,5-c]pyridin-2-yl)-1H-indazol-5-yl)pyridin-3-yl)cyclopropanecarboxamide] | 26 to 35 nM
7 | CC(C)CC(=O)Nc1cncc(-c2ccc3[nH]nc(-c4nc5c(-c6cccnc6)cncc5[nH]4)c3c2)c1 [Compound 15, 3-methyl-N-(5-(3-(7-(pyridin-3-yl)-3H-imidazo[4,5-c]pyridin-2-yl)-1H-indazol-5-yl)pyridin-3-yl)butanamide] | 5.6 nM
8 | O=C(Nc1cncc(-c2ccc3[nH]nc(-c4nc5c(-c6cccnc6)cncc5[nH]4)c3c2)c1)c1ccccc1 [Compound 16, N-(5-(3-(7-(pyridin-3-yl)-3H-imidazo[4,5-c]pyridin-2-yl)-1H-indazol-5-yl)pyridin-3-yl)benzamide] | 380 to 1170 nM
9 | CC(C)(C)C(=O)Nc1cncc(-c2ccc3[nH]nc(-c4nc5c(-c6cccnc6)cncc5[nH]4)c3c2)c1 [Compound 17, N-(5-(3-(7-(pyridin-3-yl)-3H-imidazo[4,5-c]pyridin-2-yl)-1H-indazol-5-yl)pyridin-3-yl)pivalamide] | 32 to 50 nM
10 | CC(C)(C)CC(=O)Nc1cncc(-c2ccc3[nH]nc(-c4nc5c(-c6cccnc6)cncc5[nH]4)c3c2)c1 [Compound 18, 3,3-dimethyl-N-(5-(3-(7-(pyridin-3-yl)-3H-imidazo[4,5-c]pyridin-2-yl)-1H-indazol-5-yl)pyridin-3-yl)butanamide] | 21 to 39 nM
11 | O=C(Nc1cncc(-c2ccc3[nH]nc(-c4nc5c(-c6cccnc6)cncc5[nH]4)c3c2)c1)C1CCCCC1 [Compound 19, N-(5-(3-(7-(pyridin-3-yl)-3H-imidazo[4,5-c]pyridin-2-yl)-1H-indazol-5-yl)pyridin-3-yl)cyclohexanecarboxamide] | 86 to 206 nM
12 | CCCC(=O)Nc1cncc(-c2ccc3[nH]nc(-c4nc5c(-c6cccnc6)cncc5[nH]4)c3c2)c1 [Compound 20, N-(5-(3-(7-(pyridin-3-yl)-3H-imidazo[4,5-c]pyridin-2-yl)-1H-indazol-5-yl)pyridin-3-yl)butyramide] | 63 nM
13 | O=C(Nc1cncc(-c2ccc3[nH]nc(-c4nc5c(-c6cccnc6)cncc5[nH]4)c3c2)c1)C1CCC1 [Compound 21, N-(5-(3-(7-(pyridin-3-yl)-3H-imidazo[4,5-c]pyridin-2-yl)-1H-indazol-5-yl)pyridin-3-yl)cyclobutanecarboxamide] | 29 nM
14 | CCCCC(=O)Nc1cncc(-c2ccc3[nH]nc(-c4nc5c(-c6cccnc6)cncc5[nH]4)c3c2)c1 [Compound 23, N-(5-(3-(7-(pyridin-3-yl)-3H-imidazo[4,5-c]pyridin-2-yl)-1H-indazol-5-yl)pyridin-3-yl)pentanamide] | 34 to 64 nM
